≈ marks a conversion by molar mass, not a printed value. Where “and” joins values, the source holds several entries; their conditions need not be identical. Equal entries are not always repeated. Where two headings read alike, the source gives them in different places.
How the values were obtained:
S. aureus MW2-WT [1] = assay: microbe, parasite or virus in culture; assay type: cell-based, Staphylococcus aureus; conditions: for MIC / susceptibility pattern for MW2 in the presence vs absence of Inh2-B1: E-test, 50 μM Inh2-B1
S. aureus MW2 wild-type = assay: Checkerboard titration end-point bactericidal assay (MBC), Muller-Hinton agar; assay type: cell-based, Staphylococcus aureus; conditions: for MBC: Staphylococcus aureus, MW2WILDTYPE
Protocol: FIGS. 15A-15B show checkerboard assays for determining bactericidal assay. Serial two-fold dilutions of 2 mM of Inh2-B1 (MW=411.58 g/mol) and (A) 3 mM ceftriaxone (MW=669.7 g/mol) were made in two separate 96-well plates in vertical (B1-B12 to H1-H2 wells) and horizontal (A2-H2 to A12-H12 wells) directions respectively. Serially diluted Inh2-B1 (100 μL) in the individual well was then mixed with the 100 μL serially diluted ceftriaxone present in the corresponding wells. The resulting various combinations of Inh2-B1 (starting from 1 mM) and ceftriaxone (starting from 1.5 mM) or cefotaxime (2.1 mM) as well as serially diluted one Inh2-B1 (B1 to H1) and ceftriaxone (A2-A12) or cefotaxime (A2-A12) were then incorporated in Muller-Hinton mini agar plates (2 mL). The agar plates were then seeded and diluted S. aureus MW2-wild-type culture equivalent to approximately 23±3 CFU. This checkerboard assay was used to determine the ideal combination of lowest concentration of Inh2-B1 and ceftriaxone that kills 99.9% of the wild-type MW2.
Since the STK1 is not essential for bacterial survival and its absence results in retardation of growth, an end-point bactericidal assay was done, employing the Checkerboard titration method followed by a time-to-kill assay using the broth dilution method. The 96-well plate-based checkerboard titration assays were performed using the fixed number of CFUs of MW2 strain, and the survival of the bacteria was measured on solid agar plates as an end-point result. […] The cut-off value to designate clinical isolates of S. aureus for antibiotics, including Ceftriaxone (TX) and Cefotaxime (CT) as susceptible, is less than 4 μg/ml (i.e., <4.8 μM of TX, and <7 μM of CT). […] CFU counts of MW2-WT grown in the presence of various concentrations of Inh2-B1 were examined over a period of 16 h. […] Similarly, it was also determined CFU counts of MW2-WT and MW2ΔSTK1 strains each grown in the absence or the presence of 50 μM of Inh2-B1 and 1.5 μM Ceftriaxone (1 μg/ml) or […] Cefotaxime (1 μg/ml) for 16 h employing the broth dilution method. […] Further, to address whether MW2 or STK1 could become refractory to a potential combined therapy, the S. aureus MW2 wild-type strain was grown in the presence of suboptimal dose of Inh2-B1 alone and combination with Ceftriaxone and Cefotaxime (25 μM Inh2-B1 and 3 μM of Ceftriaxone or 3 μM Cefotaxime) for consecutive 10 generations.
(§1) Subsequently, the susceptibility of S. aureus MW2 strain to Ceftriaxone, Cefotaxime, Inh2, and Inh2-B1 was confirmed by the CLSI recommended serial dilution method using Muller Hinton broth. Minimum bactericidal activity (MBC) was measured using Muller-Hinton agar. Changes in the MBC of Ceftriaxone/Cefotaxime in the presence of serially diluted Inh2-B1 was determined in two steps. Initial screening was carried out using the Checkerboard method using Muller-Hinton agar (FIG. 15). […] Subsequent time to kill assays were carried out using 50 μM Inh2-B1 and Ceftriaxone. Cefotaxime (1 μg/ml) in a final volume of 250 μl using a sterile 96-well (U-bottom) microtiter plate over a period of 16 h at 37° C. under constant rotation (120 rpm). Optical density and corresponding CFU counts were measured at every two-hour interval up to 8 hours with a final overnight reading at the end of incubation period. CFU counts were measured using appropriate dilution of 10 μl of properly mixed samples at each time interval.

S. aureus MW2-WT [2] = assay: Time-to-kill assay (OD and CFU counts over 16 h), broth dilution; assay type: cell-based, Staphylococcus aureus; conditions: only 50 μM Inh2-B1, only 1.5 μM Ceftriaxone (1 μg/ml) or only 3 μM Cefotaxime (1 μg/ml), 16 h
Protocol: FIGS. 4A-F show. […] Optical Density and corresponding Colony forming units of (C and D) MW2-WT and (E and F) MW2ΔSTK1 cultures in the presence or absence 50 μM Inh2-B1, 1.51 μM (1 μg/ml) Ceftriaxone, 2.125 μM (1 μg/ml) Cefotaxime, and combination of Inh2-B1 plus Ceftriaxone, and Inh2-B1 plus Cefotaxime. The experiments were carried out as described in the Materials and Method section using Muller-Hinton broth and seeded with 4×10^6 CFUs of S. aureus MW2-Wild type or MW2ΔSTK1 strains per well. Each data points represent Mean±S.D. P values of significance (**=<0.01, ***=<0.001) were determined using the t-test with Welch's corrections. NS—Not significant.
as §1, with “interval. All experiments were performed in three biological replicates and the statistical analysis of the results obtained at each time point was carried out by the non-parametric t-test with Welch's correction using GraphPad Prism 6 software.” for “interval.”

S. aureus MW2-WT [3] = assay: S. aureus mouse septicemia model, therapeutic study; assay type: in vivo, CD-1 mice; conditions: only Cefotaxime 10 mg/kg
Protocol: The virulence potential of the wild-type S. aureus MW2 wild-type and corresponding MW2ΔSTK1 and MW2ΔSTP1 mutants was assessed using the mouse-septicemia model. CD-1 mice (5 weeks old, 20-22 g. Charles River Laboratories, ten female mice/group and housed in a group of 5 mice/cage) were lightly anesthetized with isoflurane and injected retro-orbitally with the S. aureus MW2 or isogenic MW2Δstk1 mutant (4×10^8 CFU/0.1 ml of PBS). […] For therapeutic studies, the animals were first challenged with MW2-WT strain as described above and subsequently administered with antibiotic and/or small molecule compounds. The latter was started 4 h after the challenge and subsequently 12 h apart for 4 days post infection. Thus, Inh2-B1 (5 mg/kg body weight in 0.3 ml vehicle buffer), Ceftriaxone (10 and 25 mg/kg body weight in 0.3 ml vehicle buffer). Cefotaxime (10 mg/kg body weight), combination of Ceftriaxone (10 mg and 25 mg/kg body weight in 0.3 ml vehicle buffer) or Cefotaxime (10 mg/kg body weight) with Inh2-B1 (5 mg/kg body weight in 0.3 ml vehicle buffer), or 0.3 ml of vehicle-buffer (50 mM Tris/HCl, pH 8.8, 1.67% [v/v] DMSO). Early removal and euthanasia criteria were applied to all experimental mice showing penultimate sign(s) of the unrecoverable stage of illness, including ruffled skin with a hunch back, loss of more than 20% of body mass as compared to unchallenged mice receiving mock treatment, dyspnea, and labored gasping. All experiments were performed twice. Data were combined, and percentage survival in each group was statistically evaluated by the Log-Rank test (Kaplan-Meier) using the GraphPad Prism 6 software. P<0.05 was treated as a significant difference. On Day 3 P.I., 3-6 mice from different groups receiving treatment with a single antibiotic or combination therapy were euthanized and sacrificed, and kidneys were […] for determining the bacterial load, which was determined by counting the colony forming units in the homogenized tissue in sterile PBS buffer.

[4] = test system: S. aureus MW2ΔSTP1 mutant; assay: E-test antibiotic susceptibility (MIC), Muller-Hinton agar; assay type: cell-based; conditions: Staphylococcus aureus
[5] = test system: S. aureus MW2ΔSTK1 mutant; assay: as above; assay type: cell-based; conditions: Staphylococcus aureus

Compound | MIC / susceptibility pattern for MW2 in the presence vs absence of Inh2-B1 (S. aureus MW2-WT [1]) | MBC (S. aureus MW2 wild-type; agent alone, MW2, read-out: Minimum bactericidal concentration (MBC)) | MBC (S. aureus MW2 wild-type; in the presence of 50 μM of Inh2-B1, read-out: MBC for MW2 in the presence of Inh2-B1) | concentration up to which growth of MW2 was seen (S. aureus MW2 wild-type; agent alone, further analysis) [µM] | concentration of wells with ≥1 CFU of wild-type MW2 (S. aureus MW2 wild-type; checkerboard, agent alone) [µM] | fold reduction of MBC (S. aureus MW2 wild-type; in the presence of 50 μM of Inh2-B1 vs antibiotic alone) [fold] | MIC (S. aureus MW2-WT [1]; Staphylococcus aureus, MW2WT) [µg/mL] | growth pattern of the wild-type, single agent (S. aureus MW2-WT [2]) | time within which all challenged mice died (S. aureus MW2-WT [3]) [h] | MIC [4] [µg/mL] | MIC [5] [µg/mL]
CC[C@H]1OC(=O)[C@H](C)[C@@H](O[C@H]2C[C@@](C)(OC)[C@@H](O)[C@H](C)O2)[C@H](C)[C@@H](O[C@@H]2O[C@H](C)C[C@H](N(C)C)[C@H]2O)[C@](C)(O)C[C@@H](C)C(=O)[C@H](C)[C@@H](O)[C@]1(C)O [Erythromycin] | remained unaltered |  |  |  |  |  |  |  |  |  | 
CO/N=C(\C(=O)N[C@@H]1C(=O)N2C(C(=O)O)=C(COC(C)=O)CS[C@H]12)c1csc(N)n1 [Cefotaxime] |  | 220 µM and 100 µg/mL | 27.5 µM and 12.5 µg/mL | 176 | ≤ 110 | 8 | > 100 | remained unaltered | 36 to 48 | > 100 | 4 (≈ 8.78 µM)
C[C@@H](O)[C@H]1C(=O)N2C(C(=O)O)=C(S[C@@H]3CN[C@H](C(=O)N(C)C)C3)[C@H](C)[C@H]12 [Meropenem] | remained unaltered |  |  |  |  |  |  |  |  |  | 

— US11318141B2, “Methods and compositions related to STK1-targeted small molecules as antibiotic resistance breakers” (Ohio State Innovation Foundation, priority 2017, dated 2022)
